Assay results published in the supplement of paper PMC10307832.

Tests used:
Test in all cases: relative viability (nuclei count vs DMSO), 5 days (fraction); higher = more cells survive
[1] = system: NCI-H727
Summary of the method: (§1)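 Lung cancer cell lines, seeded in 1536-well plates, were treated the following day by pin tool with a single drug or with five library-drug doses (not always all listed) in √10 steps on top of a fixed anchor-drug dose. Cells were fixed and nuclei stained in one step after 5 days, and nuclei were counted. Relative viability is the nuclei count for treated wells divided by that for vehicle wells, reported as medians of duplicate plates.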

[2] = system: NCI-H1944
Summary of the method: as §1

[3] = system: NCI-H2087
Summary of the method: as §1

[4] = system: NCI-H1792
Summary of the method: as §1

[5] = system: BEN
Summary of the method: as §1

[6] = system: SK-LU-1
Summary of the method: as §1

[7] = system: RERF-LC-KJ
Summary of the method: as §1

[8] = system: NCI-H647
Summary of the method: as §1

[9] = system: CAL-12T
Summary of the method: as §1

[10] = system: NCI-H1793
Summary of the method: as §1

[11] = system: NCI-H2405
Summary of the method: as §1

[12] = system: HCC-827
Summary of the method: as §1

[13] = system: NCI-H2228
Summary of the method: as §1

[14] = system: NCI-H1650
Summary of the method: as §1

[15] = system: NCI-H1437
Summary of the method: as §1

[16] = system: LXF-289
Summary of the method: as §1

[17] = system: NCI-H1395
Summary of the method: as §1

[18] = system: LCLC-97TM1
Summary of the method: as §1

[19] = system: 201T
Summary of the method: as §1

[20] = system: NCI-H3122
Summary of the method: as §1

[21] = system: NCI-H322M
Summary of the method: as §1

Which results are given for O=c1cc(-c2cccc3c2Sc2ccccc2S3)oc(N2CCOCC2)c1 + CC1(C)CCC(c2ccc(Cl)cc2)=C(CN2CCN(c3ccc(C(=O)NS(=O)(=O)c4ccc(N[C@H](CCN5CCOCC5)CSc5ccccc5)c(S(=O)(=O)C(F)(F)F)c4)cc3)CC2)C1 [Navitoclax] (partner 0.5 µM)?
relative viability ([1]; first compound 0.253 µM): 0.356; relative viability ([1]; first compound 2.53 µM): 0.369; relative viability ([1]; first compound 8 µM): 0.494; relative viability ([2]; first compound 0.08 µM): 1; relative viability ([2]; first compound 0.253 µM): 1.11; relative viability ([2]; first compound 0.8 µM): 1.06; relative viability ([2]; first compound 8 µM): 1.16; relative viability ([3]; first compound 0.08 µM): 0.995; relative viability ([3]; first compound 0.253 µM): 1.3; relative viability ([3]; first compound 0.8 µM): 1.07; relative viability ([3]; first compound 2.53 µM): 0.955; relative viability ([3]; first compound 8 µM): 1.21; relative viability ([4]; first compound 0.253 µM): 0.761; relative viability ([4]; first compound 0.8 µM): 0.471; relative viability ([4]; first compound 2.53 µM): 0.555; relative viability ([4]; first compound 8 µM): 0.689; relative viability ([5]; first compound 0.08 µM): 0.0636; relative viability ([5]; first compound 0.253 µM): 0.0609; relative viability ([5]; first compound 0.8 µM): 0.0602; relative viability ([5]; first compound 2.53 µM): 0.0598; relative viability ([5]; first compound 8 µM): 0.0681; relative viability ([6]; first compound 0.08 µM): 0.684; relative viability ([6]; first compound 0.253 µM): 0.924; relative viability ([6]; first compound 0.8 µM): 0.787; relative viability ([6]; first compound 2.53 µM): 1.02; relative viability ([6]; first compound 8 µM): 1.09; relative viability ([7]; first compound 0.08 µM): 0.768; relative viability ([7]; first compound 0.253 µM): 0.711; relative viability ([7]; first compound 0.8 µM): 0.934; relative viability ([7]; first compound 2.53 µM): 0.798; relative viability ([7]; first compound 8 µM): 0.856; relative viability ([8]; first compound 0.08 µM): 1.2; relative viability ([8]; first compound 0.253 µM): 1.15; relative viability ([8]; first compound 0.8 µM): 1.12; relative viability ([8]; first compound 2.53 µM): 1.04; relative viability ([8]; first compound 8 µM): 1.37; relative viability ([9]; first compound 0.08 µM): 1.16; relative viability ([9]; first compound 0.253 µM): 1.26; relative viability ([9]; first compound 0.8 µM): 1.48; relative viability ([9]; first compound 2.53 µM): 1.2; relative viability ([9]; first compound 8 µM): 1.31; relative viability ([10]; first compound 0.08 µM): 0.307; relative viability ([10]; first compound 0.253 µM): 0.515; relative viability ([10]; first compound 0.8 µM): 0.344; relative viability ([10]; first compound 2.53 µM): 0.362; relative viability ([10]; first compound 8 µM): 0.356; relative viability ([11]; first compound 0.08 µM): 0.887; relative viability ([11]; first compound 0.253 µM): 0.761; relative viability ([11]; first compound 0.8 µM): 0.794; relative viability ([11]; first compound 2.53 µM): 0.825; relative viability ([11]; first compound 8 µM): 0.78; relative viability ([12]; first compound 0.08 µM): 1.05; relative viability ([12]; first compound 0.253 µM): 1.06; relative viability ([12]; first compound 0.8 µM): 1.08; relative viability ([12]; first compound 2.53 µM): 0.998; relative viability ([12]; first compound 8 µM): 1.07; relative viability ([13]; first compound 0.08 µM): 1.17; relative viability ([13]; first compound 0.253 µM): 0.902; relative viability ([13]; first compound 0.8 µM): 0.818; relative viability ([13]; first compound 2.53 µM): 0.87; relative viability ([13]; first compound 8 µM): 0.852; relative viability ([14]; first compound 0.08 µM): 1.05; relative viability ([14]; first compound 0.253 µM): 1.21; relative viability ([14]; first compound 0.8 µM): 1.12; relative viability ([14]; first compound 2.53 µM): 1.17; relative viability ([14]; first compound 8 µM): 1.38; relative viability ([15]; first compound 0.08 µM): 1.08; relative viability ([15]; first compound 0.253 µM): 1.58; relative viability ([15]; first compound 0.8 µM): 1.09; relative viability ([15]; first compound 2.53 µM): 1.11; relative viability ([15]; first compound 8 µM): 1.39; relative viability ([16]; first compound 0.08 µM): 0.996; relative viability ([16]; first compound 0.253 µM): 1.06; relative viability ([16]; first compound 0.8 µM): 1.03; relative viability ([16]; first compound 2.53 µM): 0.951; relative viability ([16]; first compound 8 µM): 1; relative viability ([17]; first compound 0.08 µM): 1.14; relative viability ([17]; first compound 0.253 µM): 1.1; relative viability ([17]; first compound 0.8 µM): 1.12; relative viability ([17]; first compound 2.53 µM): 1.13; relative viability ([17]; first compound 8 µM): 1.03; relative viability ([18]; first compound 0.08 µM): 0.425; relative viability ([18]; first compound 0.253 µM): 0.597; relative viability ([18]; first compound 0.8 µM): 0.374; relative viability ([18]; first compound 2.53 µM): 0.329; relative viability ([18]; first compound 8 µM): 0.372; relative viability ([19]; first compound 0.08 µM): 1.15; relative viability ([19]; first compound 0.253 µM): 1.2; relative viability ([19]; first compound 0.8 µM): 1.23; relative viability ([19]; first compound 2.53 µM): 1.2; relative viability ([19]; first compound 8 µM): 1.15; relative viability ([20]; first compound 0.08 µM): 1.04; relative viability ([20]; first compound 0.253 µM): 1.01; relative viability ([20]; first compound 0.8 µM): 1.03; relative viability ([20]; first compound 2.53 µM): 1.02; relative viability ([20]; first compound 8 µM): 1.03; relative viability ([21]; first compound 0.08 µM): 1.2; relative viability ([21]; first compound 0.253 µM): 1.3; relative viability ([21]; first compound 0.8 µM): 1.15; relative viability ([21]; first compound 2.53 µM): 1.16; relative viability ([21]; first compound 8 µM): 1.05
